Experimental data taken from US20220098228A1, “METHODS AND COMPOSITIONS FOR IMPROVING THE IMMUNE SYSTEM AND PROVIDING IMMUNO-PROTECTION” (Natreon, Inc., priority 2020, published 2022).
Marks after values point to notes of the source that are not given here.

Assays:
peritoneal macrophages [1] = test: NBT reduction assay in peritoneal macrophages, cyclophosphamide-induced immunosuppression (Example II); type: in vivo, Swiss albino mice; conditions: for OD (515 nm), NBT reduction assay in peritoneal macrophages: 10 mg/kg body weight p.o. 7 days + cyclophosphamide 250 mg/kg i.p., Mean ± SD, n = 6; for improvement in NBT reduction capacity: 10 mg/kg body weight p.o., in comparison with cyclophosphamide treated mice
Experimental: (§1) The mice were acclimatized for one week in the laboratory conditions, before being used in the experiment. All experiments were conducted between 10.00 hr and 14.00 hr. Principles of laboratory animal care (NIH publication no. 85-23, revised 1985) were followed.
(§2) All test compounds (DBPs and DBP glycosides) were suspended in 0.3% of CMC (Carboxymethyl Cellulose) solutions of distilled water and were administered orally for 7 days by using an intubation canula. The volume of dose was 100 μl/10 g body weight. Cyclophosphamide was dissolved in distilled water and was injected (250 mg/kg, i.p.) on day one and volume of dose was 100 μl/10 g body weight. Control animals received equivalent volume of the vehicles CMC (0.3%) solutions only.
On day seven all the animals were sacrificed under ether anesthesia and peritoneal macrophages were lavaged using ice cold phosphate buffer saline (PBS: 0.15M NaCl pH-7.4). After centrifugation (3000 rpm×10 min) at 4° C. the pellet was re-suspended in PBS and cell viability was confirmed by trypan blue exclusion method. (Bala A, Haldar P K, Kar B, Naskar S and Mazumder U K, “Carbon tetrachloride: A hepatotoxin causes oxidative stress in murine peritoneal macrophage and peripheral blood lymphocyte cells” Immunopharmacol. and Immunotoxicol. 34(1): 157-162 (2012)).
Preparation of NBT solution: 0.2% NBT (nitroblue tetrazolium) in PB (Phosphate Buffer, pH 7.4), 5% dextrose and HBSS (Hank's balanced salt solution). The three solutions were mixed in 6:2:4 ratios. (Saxena A K, Singh K P, Srivastava S N, Shukla L J and Shanker R., “Immunomodulating effects of caffeine in rodents” Ind J Exptl Biol. 22: 298-301 (1984)).
Method: 0.5 ml of NBT solution was added to 0.5 ml of peritoneal macrophages (1×10^6 cells/ml) in a micro-centrifuge tube. This mixture was incubated at 37° C. for 45 minutes. The cell suspension was centrifuged at 1500 rpm for 10 minutes. Supernatant was discarded and pellet was re-suspended in 2 ml of DMSO. The tubes were kept in a boiling water bath for 10 minutes. The tubes were again centrifuged at 1500 rpm for 10 minutes. The supernatant was collected, and absorbance was measured at 515 nm.

splenocytes [2] = test: Cell viability of splenocytes, trypan blue exclusion, cyclophosphamide-induced immunosuppression (Example II); type: in vivo, Swiss albino mice; conditions: for % Cell Viability of splenocytes: 10 mg/kg body weight p.o. 7 days + cyclophosphamide 250 mg/kg i.p., Mean ± SD, n = 6
Experimental: as §1, §2
Spleen was collected. Single cell suspension was prepared by mincing and tapping the spleen fragments on stainless steel 200-mesh in ice cold phosphate buffer saline (PBS: 0.15M NaCl pH 7.4). Cell suspension was centrifuged at 2000 rpm for 10 minutes. The pellet was re-suspended in PBS and cell viability was confirmed by trypan blue exclusion method.

Swiss albino mice = test: Cyclophosphamide-induced immunosuppression in mice, overall conclusion (Example II); type: in vivo; conditions: treatment for 7 days at 10 mg/kg body weight (p.o.)
Experimental: All experiments were conducted between 10.00 hr and 14.00 hr. […] Control animals received equivalent volume of the vehicles CMC (0.3%) solutions only.

peritoneal macrophages [3] = test: Peritoneal macrophage viability, trypan blue exclusion (Example III); type: in vivo, Swiss albino mice
Experimental: (§3) Male and female Swiss albino mice (n=8; 4 from each gender) weighing approximately 25±5 g, were obtained from National Research Institute of Ayurveda for Drug Development (Govt. of India), Kolkata, and were housed in polypropylene cages at 22±3° C., relative air humidity of 45 to 55%, with 12.00 h light & dark cycle (lighting on from 6:00 AM to 6:00 PM). […] The mice were acclimatized for one week in the laboratory conditions, before being used in the experiment. All experiments were conducted between 10.00 h and 14.00 h. Principles of laboratory animal care (NIH publication no. 85-23, revised 1985) was followed.
(§4) Cyclophosphamide was dissolved in distilled water and the mice were administered a single exposure (250 mg/kg, i.p.) on day 1.
(§5) 3-OH-DBP, 3,8-(OH)2-DBP, and combined 3-OH-DBP+3,8-(OH)2-DBP were administered once daily for 7 days starting from day 1. Following 7 days of treatment the mice were anaesthetized and sacrificed under anaesthesia followed by collection of peritoneal macrophages and spleen (for splenocyte isolation).
(§6) Swiss albino mice were randomly divided into 8 Groups (n=8; 4 from each gender). […] (2:10) (12 mg/kg b.w., p.o.), Group VI mice were administered 3-OH-DBP (10 mg/kg b.w., p.o.), Group VII mice were administered 3,8-(OH)2-DBP (50 mg/kg b.w., p.o.), Group VIII mice were administered [3-OH-DBP+3,8-(OH)2-DBP] (10:50) (60 mg/kg b.w., p.o.).
(§7) All the animals were sacrificed under ether anesthesia and peritoneal macrophages were lavaged using ice cold phosphate buffer saline (PBS: 0.15 M NaCl; pH: 7.4). After centrifugation (3000 rpm×10 min) at 4° C., pellets were re-suspended in PBS and cell viability was confirmed by trypan blue exclusion assay.
(§8) Results were expressed in terms of mean±SEM (n=8; 4 from each gender). Data were subjected to one way ANOVA followed by Tukey's test using GraphPad Prism 4.0 software to establish statistical significance (*p<0.05, **p<0.01, ***p<0.001, where * refers to comparison with Group I vehicle control; #p<0.05, ##p<0.01, ###p<0.001, where #refers to comparison with Group II cyclophosphamide administration; ^ap<0.05, ^aap<0.01, ^aap<0.01, where a refers to comparison of Day 7 with Day 0).

splenocytes [4] = test: Splenocyte viability, trypan blue exclusion (Example III); type: in vivo, Swiss albino mice; conditions: for % Viability Day7, splenocyte viability: Day 7
Experimental: as §3, §4, §5, §6
Spleens were collected and single cell suspension was prepared by mincing and tapping the spleen fragments on stainless steel 200-mesh in ice cold phosphate buffer saline (PBS: 0.15M NaCl; pH: 7.4). Cell suspensions were centrifuged at 2000 rpm for 10 minutes.
as §8

peritoneal macrophages [5] = test: NBT reduction of peritoneal macrophages (Example III); type: in vivo, Swiss albino mice; conditions: for NBT reduction compared with vehicle control: cyclophosphamide, 3-OH-DBP 2 and 10 mg/kg, combined 12 mg/kg
Experimental: as §3, §4, §5, §6, §7
Preparation of NBT solution: 0.2% NBT (nitroblue tetrazolium) in PBS (pH 7.4), 5% dextrose and HBSS. These three solutions were mixed in 6:2:4 ratios.
0.5 ml of NBT solution was added to 0.5 ml of peritoneal macrophages (1×10^6 cells/ml) in micro-centrifuge tube. This mixture was incubated at 37° C. for 2 hours. The cell suspension was centrifuged at 2000 rpm for 10 minutes. Supernatants were discarded and pellets were re-suspended in 1 ml of DMSO. The tubes were kept in boiling water bath for 10 minutes and then cooled and centrifuged at 2000 rpm for 10 minutes. The supernatants were collected and absorbance was measured at 515 nm.
as §8

[6] = mouse, in vivo
Experimental: as §3, §4, §5, §6, §8

[7] = female mice, 3-OH-DBP 2 and 10 mg/kg, 3,8-(OH)2-DBP 10 and 50 mg/kg, combined 12 and 60 mg/kg
[8] = female mice, 2 mg/kg p.o. + cyclophosphamide 250 mg/kg i.p.
[9] = female mice, 10 mg/kg p.o. + cyclophosphamide 250 mg/kg i.p.
[10] = male mice, 3-OH-DBP 10 mg/kg, 3,8-(OH)2-DBP 50 mg/kg, combined 60 mg/kg
[11] = male mice, 2 mg/kg p.o. + cyclophosphamide 250 mg/kg i.p.
[12] = male mice, 10 mg/kg p.o. + cyclophosphamide 250 mg/kg i.p.

## O=c1oc2cc(OC3OC(CO)C(O)C(O)C3O)ccc2c2ccccc12 [3-OH-DBP glycoside, 3-O-D-Glucopyranosyl-Dibenzo-alpha-pyrone]
Peritoneal macrophages [1]
  OD (515 nm), NBT reduction assay in peritoneal macrophages: 0.168 ± 0.014
  improvement in NBT reduction capacity: highest level of improvement
Splenocytes [2]
  % Cell Viability of splenocytes: 60.39 ± 5.85 %
Splenocytes [2]; 10 mg/kg p.o. in cyclophosphamide-treated mice
  improvement in splenocyte viability: significant improvement
Swiss albino mice
  Cyclophosphamide-induced immunosuppression (conclusion): rescued

## O=c1oc2cc(OC3OC(CO)C(O)C(O)C3O)ccc2c2ccc(OC3OC(CO)C(O)C(O)C3O)cc12 [3,8-(OH)2-DBP glycoside, 3,8-di-(O-D-Glucopyranosyl)-Dibenzo-alpha-pyrone]
Peritoneal macrophages [1]
  OD (515 nm), NBT reduction assay in peritoneal macrophages: 0.153 ± 0.013
  improvement in NBT reduction capacity: moderate (p<0.05) improvement
Splenocytes [2]
  % Cell Viability of splenocytes: 58.58 ± 4.49%
Swiss albino mice
  Cyclophosphamide-induced immunosuppression (conclusion): rescued

## O=c1oc2cc(O)ccc2c2ccccc12 [3-OH-DBP, 3-hydroxy-dibenzo-alpha-pyrone]
Peritoneal macrophages [1]
  OD (515 nm), NBT reduction assay in peritoneal macrophages: 0.154 ± 0.019
  improvement in NBT reduction capacity: moderate (p<0.05) improvement
Splenocytes [2]
  % Cell Viability of splenocytes: 59.70 ± 3.59%
Peritoneal macrophages [3]; [7]
  peritoneal macrophage viability compared with cyclophosphamide treated mice: significantly (p<0.05, p<0.01) increased
Peritoneal macrophages [3]; [8]
  % Viability Day 7, peritoneal macrophage viability: 62.53 ± 2.14** %
Peritoneal macrophages [3]; [9]
  % Viability Day 7, peritoneal macrophage viability: 72.56 ± 2.01^# %
Peritoneal macrophages [3]; [10]
  peritoneal macrophage viability compared with cyclophosphamide treated mice: significantly (p<0.05, p<0.01) increased
Peritoneal macrophages [3]; [11]
  % Viability Day 7, peritoneal macrophage viability: 59.90 ± 0.51* %
Peritoneal macrophages [3]; [12]
  % Viability Day 7, peritoneal macrophage viability: 69.64 ± 2.77# %
Peritoneal macrophages [3]; male mice, cyclophosphamide, 3-OH-DBP 2 mg/kg, 3,8-(OH)2-DBP 10 mg/kg
  peritoneal macrophage viability compared with vehicle control: significantly (p<0.05) decreased
Splenocytes [4]; [7]
  splenocyte viability compared with cyclophosphamide treated mice: significantly (p<0.05, p<0.01, p<0.001) increased
Splenocytes [4]; [8]
  % Viability Day7, splenocyte viability: 88.40 ± 1.61# %
Splenocytes [4]; [9]
  % Viability Day7, splenocyte viability: 90.77 ± 1.77## %
Splenocytes [4]; [10]
  splenocyte viability compared with cyclophosphamide treated mice: significantly higher
Splenocytes [4]; [11]
  % Viability Day7, splenocyte viability: 69.34 ± 1.84*** %
Splenocytes [4]; [12]
  % Viability Day7, splenocyte viability: 80.9 ± 1.24## %
Splenocytes [4]; male mice, cyclophosphamide, 2 mg/kg 3-OH-DBP, 10 mg/kg 3,8-(OH)2-DBP, 12 mg/kg combined
  splenocyte viability compared with vehicle control: similarly decreased
Peritoneal macrophages [5]; female mice, 3-OH-DBP 10 mg/kg, 3,8-(OH)2-DBP 50 mg/kg, combined 12 and 60 mg/kg
  NBT reduction compared with cyclophosphamide treated mice: significantly (p<0.05, p<0.01, p<0.001) increased
Peritoneal macrophages [5]; [8]
  O.D. (515 nm) Day 7, NBT reduction of peritoneal macrophages: 0.142 ± 0.005***
Peritoneal macrophages [5]; [9]
  O.D. (515 nm) Day 7, NBT reduction of peritoneal macrophages: 0.207 ± 0.02**,##
Peritoneal macrophages [5]; female mice, 3,8-(OH)2-DBP 10 and 50 mg/kg
  NBT reduction compared with vehicle control: significantly (p<0.05, p<0.01, p<0.001) decreased
Peritoneal macrophages [5]; [11]
  O.D (515 nm) Day 7, NBT reduction of peritoneal macrophages: 0.257 ± 0.02338***
Peritoneal macrophages [5]; [12]
  O.D (515 nm) Day 7, NBT reduction of peritoneal macrophages: 0.232 ± 0.04097***
Peritoneal macrophages [5]; male mice, 3,8-(OH)2-DBP 10 mg/kg
  NBT reduction compared with vehicle control: significantly (p<0.01, p<0.001) decreased
[6]
  feed intake Day 7 in comparison to Day 0: significantly (p<0.05, p<0.01) decreased
  feed intake compared to vehicle control: significantly (p<0.05, p<0.01) decreased
  water intake compared with cyclophosphamide treated mice: significantly (p<0.001) decreased
  water intake compared with vehicle control: significantly (p<0.001) decreased
  water intake compared with vehicle control and cyclophosphamide treated mice: significantly (p<0.05, p<0.001) decreased
